{
  "source": "ChEMBL document CHEMBL1201862",
  "about": "“PubChem BioAssay data set” (2004)",
  "key": {"[1]": {"molecular_target": "Voltage-dependent T-type calcium channel subunit alpha-1H (Homo sapiens, UniProt O95180)", "sequence (O95180 whole entry)": "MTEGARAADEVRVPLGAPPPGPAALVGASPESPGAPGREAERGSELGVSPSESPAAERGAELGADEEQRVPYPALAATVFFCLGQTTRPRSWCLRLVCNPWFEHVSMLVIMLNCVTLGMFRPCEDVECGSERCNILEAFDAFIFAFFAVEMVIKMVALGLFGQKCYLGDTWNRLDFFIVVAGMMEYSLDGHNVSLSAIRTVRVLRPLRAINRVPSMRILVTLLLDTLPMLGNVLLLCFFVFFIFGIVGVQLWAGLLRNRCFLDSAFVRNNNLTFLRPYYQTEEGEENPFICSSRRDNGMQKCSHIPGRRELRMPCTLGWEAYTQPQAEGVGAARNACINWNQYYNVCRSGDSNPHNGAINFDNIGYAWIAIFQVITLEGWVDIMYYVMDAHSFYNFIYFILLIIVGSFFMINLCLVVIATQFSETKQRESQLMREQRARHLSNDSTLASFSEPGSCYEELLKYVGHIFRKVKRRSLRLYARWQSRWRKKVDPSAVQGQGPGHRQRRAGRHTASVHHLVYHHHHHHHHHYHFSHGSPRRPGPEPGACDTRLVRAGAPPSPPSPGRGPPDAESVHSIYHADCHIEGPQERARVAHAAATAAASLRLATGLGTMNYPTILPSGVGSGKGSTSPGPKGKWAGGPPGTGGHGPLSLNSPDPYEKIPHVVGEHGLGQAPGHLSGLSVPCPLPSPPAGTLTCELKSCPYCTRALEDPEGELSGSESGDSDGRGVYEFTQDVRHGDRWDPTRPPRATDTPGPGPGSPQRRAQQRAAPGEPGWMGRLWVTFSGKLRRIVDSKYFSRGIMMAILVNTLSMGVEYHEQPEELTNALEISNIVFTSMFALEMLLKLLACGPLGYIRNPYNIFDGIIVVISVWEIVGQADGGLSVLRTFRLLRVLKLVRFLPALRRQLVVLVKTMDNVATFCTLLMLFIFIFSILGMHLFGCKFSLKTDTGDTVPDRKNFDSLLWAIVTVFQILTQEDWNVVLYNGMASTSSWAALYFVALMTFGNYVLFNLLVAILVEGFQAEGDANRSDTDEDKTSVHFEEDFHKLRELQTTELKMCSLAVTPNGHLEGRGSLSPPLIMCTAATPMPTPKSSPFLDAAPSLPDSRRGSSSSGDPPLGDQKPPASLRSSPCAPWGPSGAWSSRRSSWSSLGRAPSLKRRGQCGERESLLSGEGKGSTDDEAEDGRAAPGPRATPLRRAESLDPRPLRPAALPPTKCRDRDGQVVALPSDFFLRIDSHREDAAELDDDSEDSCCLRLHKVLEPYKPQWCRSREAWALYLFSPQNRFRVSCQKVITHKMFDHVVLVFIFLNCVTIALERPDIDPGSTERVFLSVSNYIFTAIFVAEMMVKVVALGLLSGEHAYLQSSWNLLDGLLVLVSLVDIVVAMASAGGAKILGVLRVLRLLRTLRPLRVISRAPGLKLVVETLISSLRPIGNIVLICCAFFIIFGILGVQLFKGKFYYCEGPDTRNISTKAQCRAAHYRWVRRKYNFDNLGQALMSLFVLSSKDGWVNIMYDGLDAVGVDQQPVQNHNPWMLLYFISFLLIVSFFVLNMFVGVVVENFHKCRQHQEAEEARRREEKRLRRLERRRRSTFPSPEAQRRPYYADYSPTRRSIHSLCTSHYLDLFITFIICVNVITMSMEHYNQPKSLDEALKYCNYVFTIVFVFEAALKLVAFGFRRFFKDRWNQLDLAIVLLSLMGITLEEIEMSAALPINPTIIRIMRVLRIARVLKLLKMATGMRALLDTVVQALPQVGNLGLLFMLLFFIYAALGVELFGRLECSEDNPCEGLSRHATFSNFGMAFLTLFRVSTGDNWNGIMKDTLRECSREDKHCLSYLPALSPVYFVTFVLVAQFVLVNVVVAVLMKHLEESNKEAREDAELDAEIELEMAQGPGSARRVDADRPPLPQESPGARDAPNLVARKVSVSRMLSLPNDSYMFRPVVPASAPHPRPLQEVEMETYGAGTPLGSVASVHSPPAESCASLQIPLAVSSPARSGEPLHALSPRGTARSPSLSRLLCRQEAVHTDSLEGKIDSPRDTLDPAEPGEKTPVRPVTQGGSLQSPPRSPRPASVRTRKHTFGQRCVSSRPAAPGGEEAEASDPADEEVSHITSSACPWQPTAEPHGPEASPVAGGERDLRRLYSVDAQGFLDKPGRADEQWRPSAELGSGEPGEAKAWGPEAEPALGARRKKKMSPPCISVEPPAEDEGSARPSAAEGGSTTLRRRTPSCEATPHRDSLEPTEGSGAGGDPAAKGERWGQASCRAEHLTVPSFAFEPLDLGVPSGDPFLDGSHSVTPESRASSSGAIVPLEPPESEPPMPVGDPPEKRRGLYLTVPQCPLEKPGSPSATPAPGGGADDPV", "type": "functional"}, "[2]": {"test": "cells", "type": "functional, cell-based"}, "[3]": {"test": "cells", "type": "functional, cell-based", "remark": "listed apart in the source"}, "[4]": {"molecular_target": "T1, Acyl-homoserine lactone acylase PvdQ (Pseudomonas aeruginosa (strain LESB58), UniProt Q9I194)", "T1 sequence (Q9I194 whole entry)": "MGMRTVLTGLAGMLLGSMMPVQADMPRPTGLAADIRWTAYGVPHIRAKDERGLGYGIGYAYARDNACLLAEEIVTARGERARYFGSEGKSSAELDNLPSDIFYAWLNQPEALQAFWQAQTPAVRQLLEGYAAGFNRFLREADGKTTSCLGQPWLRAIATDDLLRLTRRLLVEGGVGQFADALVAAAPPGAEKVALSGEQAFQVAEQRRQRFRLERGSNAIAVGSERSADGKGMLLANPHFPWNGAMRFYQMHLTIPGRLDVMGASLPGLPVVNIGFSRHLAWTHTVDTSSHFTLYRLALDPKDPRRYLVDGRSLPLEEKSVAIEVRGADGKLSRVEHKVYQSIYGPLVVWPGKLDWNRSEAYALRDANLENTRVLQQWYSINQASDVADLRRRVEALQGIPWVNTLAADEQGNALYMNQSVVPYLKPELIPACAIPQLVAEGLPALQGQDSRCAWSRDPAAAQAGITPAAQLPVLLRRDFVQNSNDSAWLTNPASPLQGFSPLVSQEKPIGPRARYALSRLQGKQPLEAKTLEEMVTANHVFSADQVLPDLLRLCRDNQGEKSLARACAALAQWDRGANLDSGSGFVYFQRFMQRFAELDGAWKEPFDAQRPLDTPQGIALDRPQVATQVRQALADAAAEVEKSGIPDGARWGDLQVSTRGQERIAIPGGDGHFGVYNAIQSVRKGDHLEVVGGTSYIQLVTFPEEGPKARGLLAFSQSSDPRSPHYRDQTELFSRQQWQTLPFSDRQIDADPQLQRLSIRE", "test": "PvdQ acylase enzyme activity blockers – biochemical, fluorescence, plate reader and imaging, cherry-picks, dose response (AID 493231)"}, "[5]": {"molecular_target": "Luciferin 4-monooxygenase (Photinus pyralis, UniProt P08659)", "sequence (P08659 whole entry)": "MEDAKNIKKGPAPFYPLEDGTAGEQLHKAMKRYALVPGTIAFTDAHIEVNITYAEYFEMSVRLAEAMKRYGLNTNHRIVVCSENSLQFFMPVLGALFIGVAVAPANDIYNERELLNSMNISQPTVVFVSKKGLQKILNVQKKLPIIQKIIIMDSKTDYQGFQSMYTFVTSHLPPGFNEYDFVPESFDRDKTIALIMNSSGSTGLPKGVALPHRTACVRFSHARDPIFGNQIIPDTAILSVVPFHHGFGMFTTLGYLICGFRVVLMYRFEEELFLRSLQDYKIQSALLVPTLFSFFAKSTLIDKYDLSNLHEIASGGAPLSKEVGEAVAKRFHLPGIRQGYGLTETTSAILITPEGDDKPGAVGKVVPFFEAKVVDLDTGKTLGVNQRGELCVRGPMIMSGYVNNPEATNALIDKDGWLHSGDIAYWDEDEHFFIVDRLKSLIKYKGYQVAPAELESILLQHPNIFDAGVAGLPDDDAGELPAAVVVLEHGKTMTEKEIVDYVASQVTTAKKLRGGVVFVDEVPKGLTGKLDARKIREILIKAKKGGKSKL", "test": "Counter Screen for Luciferase-based Assay Positives. [Related pubchem assays: 620, 618, 411 ]"}, "[6]": {"tested_on": "HT-1080", "test": "HT1080 cell viability loss – fluorescence readout (AID 620)", "type": "functional, cell-based", "conditions": "Homo sapiens"}, "[7]": {"tested_on": "BJ", "test": "cells", "type": "functional, cell-based", "conditions": "Homo sapiens"}, "[8]": {"tested_on": "BJ", "test": "growth inhibition of engineered Ras-driven BJ cells – cell-based, alamar blue fluorescence, cherrypicked samples, dose response (AID 2631)", "type": "functional", "conditions": "Homo sapiens"}, "[9]": {"tested_on": "BJ", "test": "BJ-TERT fibroblast viability loss – cell-based, RAS-independent, luminescence, dose response (AID 1933)", "type": "functional", "conditions": "Homo sapiens"}, "[10]": {"tested_on": "BJ", "test": "BJ-TERT-LT-ST fibroblast viability loss – cell-based, RAS-independent, luminescence, dose response (AID 1935);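 also: BJ fibroblasts immortalized with TERT plus LT and ST oncogenes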", "type": "functional", "conditions": "Homo sapiens"}, "[11]": {"test": "DRD fibroblast viability loss – cell-based, non-viral oncogenic, luminescence, dose response (AID 1934)", "type": "functional", "conditions": "Homo sapiens"}, "[12]": {"test": "HEK-293T cell viability reduction – luminescence, B-cell screen hits, cytotoxicity control for BCR NF-kB inhibitor project, dose response (AID 489021);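 also: HEK-293T cells carrying an NF-kB luciferase reporter; cells exposed to compound for about 14 hours before viability readout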", "type": "functional, cell-based"}, "[13]": {"molecular_target": "Paired box protein Pax-8 (Homo sapiens, UniProt Q06710)", "sequence (Q06710 whole entry)": "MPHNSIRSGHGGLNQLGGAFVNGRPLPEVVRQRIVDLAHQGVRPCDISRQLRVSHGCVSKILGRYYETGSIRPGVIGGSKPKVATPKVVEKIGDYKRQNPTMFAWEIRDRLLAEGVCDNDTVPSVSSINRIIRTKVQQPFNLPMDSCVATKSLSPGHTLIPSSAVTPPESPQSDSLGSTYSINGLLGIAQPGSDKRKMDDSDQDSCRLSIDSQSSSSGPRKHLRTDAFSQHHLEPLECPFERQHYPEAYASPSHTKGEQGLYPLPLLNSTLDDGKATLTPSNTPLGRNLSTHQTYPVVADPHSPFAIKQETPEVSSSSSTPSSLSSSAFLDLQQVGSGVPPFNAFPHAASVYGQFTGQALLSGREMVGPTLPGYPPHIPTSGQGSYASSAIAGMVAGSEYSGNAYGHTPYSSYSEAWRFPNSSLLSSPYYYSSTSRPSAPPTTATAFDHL", "test": "PAX8 transcriptional activity inhibition in RMG-I – RMG-I cells, luciferase, cherry-pick, dose response (AID 687027);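 also: luciferase reporter driven by Pax8 target thyroperoxidase promoter measured by SteadyGlo luminescence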", "type": "functional, cell-based"}, "[14]": {"test": "general cell-killing toxicity readout – plate reader, dry powder samples, cytotoxicity control for PAX8 inhibitor project, dose response (AID 743021)", "type": "functional, cell-based"}, "[15]": {"molecular_target": "T2, Heat shock factor protein 1 (Mus musculus, UniProt P38532)", "T2 sequence (P38532 whole entry)": "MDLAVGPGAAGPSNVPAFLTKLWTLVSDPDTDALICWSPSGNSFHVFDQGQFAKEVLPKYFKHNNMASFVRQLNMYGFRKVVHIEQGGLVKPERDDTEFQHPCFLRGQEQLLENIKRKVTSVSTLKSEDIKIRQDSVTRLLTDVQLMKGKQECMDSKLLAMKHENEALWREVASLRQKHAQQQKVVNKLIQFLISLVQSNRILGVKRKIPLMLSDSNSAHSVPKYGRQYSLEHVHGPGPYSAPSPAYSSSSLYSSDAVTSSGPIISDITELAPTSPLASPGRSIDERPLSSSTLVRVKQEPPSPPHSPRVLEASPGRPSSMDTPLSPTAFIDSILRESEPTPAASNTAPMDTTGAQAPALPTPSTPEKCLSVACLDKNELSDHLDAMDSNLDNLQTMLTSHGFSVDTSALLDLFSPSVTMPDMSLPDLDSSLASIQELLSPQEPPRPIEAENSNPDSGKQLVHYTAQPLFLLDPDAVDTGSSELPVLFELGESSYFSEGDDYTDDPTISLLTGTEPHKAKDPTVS", "test": "decrease of HSF1-responsive luciferase luminescence – cell-based, NIH3T3, dose retest, confirmation (AID 2382);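 also: NIH3T3 fibroblasts with HSF1-driven luciferase reporter stressed by proteasome inhibitor MG132; luminescence from HSF1-driven luciferase expression after 8 hours of MG132 stress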", "type": "functional"}, "[16]": {"molecular_target": "T3, Alkaline phosphatase, tissue-nonspecific isozyme (Homo sapiens, UniProt P05186)", "T3 sequence (P05186 whole entry)": "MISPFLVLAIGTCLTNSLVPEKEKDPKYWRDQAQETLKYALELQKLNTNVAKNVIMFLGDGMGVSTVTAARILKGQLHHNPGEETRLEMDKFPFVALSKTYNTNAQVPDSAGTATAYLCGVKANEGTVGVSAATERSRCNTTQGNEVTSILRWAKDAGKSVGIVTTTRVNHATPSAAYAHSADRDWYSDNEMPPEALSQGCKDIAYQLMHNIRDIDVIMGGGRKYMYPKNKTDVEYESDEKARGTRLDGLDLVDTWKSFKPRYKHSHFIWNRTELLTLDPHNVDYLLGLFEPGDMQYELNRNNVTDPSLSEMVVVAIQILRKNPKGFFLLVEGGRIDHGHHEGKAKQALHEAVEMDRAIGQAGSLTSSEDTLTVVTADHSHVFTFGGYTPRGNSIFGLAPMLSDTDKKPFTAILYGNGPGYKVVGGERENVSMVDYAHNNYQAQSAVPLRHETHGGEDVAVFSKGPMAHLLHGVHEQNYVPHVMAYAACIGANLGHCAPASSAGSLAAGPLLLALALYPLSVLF", "test": "potency against alkaline phosphatase TNAP – biochemical, luminescent, dose response, SAR follow-up (AID 1056)"}, "[17]": {"molecular_target": "Glyceraldehyde-3-phosphate dehydrogenase (Homo sapiens, UniProt P04406)", "sequence (P04406 whole entry)": "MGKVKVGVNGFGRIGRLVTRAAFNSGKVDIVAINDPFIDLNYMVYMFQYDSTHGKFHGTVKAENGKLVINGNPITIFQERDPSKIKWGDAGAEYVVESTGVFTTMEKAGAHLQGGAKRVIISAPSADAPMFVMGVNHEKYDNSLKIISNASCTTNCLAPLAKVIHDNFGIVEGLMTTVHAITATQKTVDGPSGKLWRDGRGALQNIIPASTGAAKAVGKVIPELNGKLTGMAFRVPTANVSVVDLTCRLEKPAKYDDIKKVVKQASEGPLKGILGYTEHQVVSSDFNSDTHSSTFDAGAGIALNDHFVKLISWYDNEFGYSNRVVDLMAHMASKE"}, "[18]": {"molecular_target": "DNA dC->dU-editing enzyme APOBEC-3G (Homo sapiens, UniProt Q9HC16)", "sequence (Q9HC16 whole entry)": "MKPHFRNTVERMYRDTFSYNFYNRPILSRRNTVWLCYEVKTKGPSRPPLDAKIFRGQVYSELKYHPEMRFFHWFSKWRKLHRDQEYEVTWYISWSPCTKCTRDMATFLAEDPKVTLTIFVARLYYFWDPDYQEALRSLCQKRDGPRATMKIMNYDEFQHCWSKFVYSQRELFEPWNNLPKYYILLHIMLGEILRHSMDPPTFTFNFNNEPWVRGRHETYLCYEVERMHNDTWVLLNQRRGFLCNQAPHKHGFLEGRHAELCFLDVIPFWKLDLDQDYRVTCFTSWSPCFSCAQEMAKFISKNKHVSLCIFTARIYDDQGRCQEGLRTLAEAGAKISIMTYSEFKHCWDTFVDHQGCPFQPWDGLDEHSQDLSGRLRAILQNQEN", "test": "Dose Response confirmation of small molecule APOBEC3G DNA Deaminase Inhibitors via a fluorescence-based single-stranded DNA deaminase assay. [Related pubchem assays (depositor defined):AID493012, AID493028]", "type": "functional"}, "[19]": {"molecular_target": "FAD-linked sulfhydryl oxidase ALR (Homo sapiens, UniProt P55789)", "sequence (P55789 whole entry)": "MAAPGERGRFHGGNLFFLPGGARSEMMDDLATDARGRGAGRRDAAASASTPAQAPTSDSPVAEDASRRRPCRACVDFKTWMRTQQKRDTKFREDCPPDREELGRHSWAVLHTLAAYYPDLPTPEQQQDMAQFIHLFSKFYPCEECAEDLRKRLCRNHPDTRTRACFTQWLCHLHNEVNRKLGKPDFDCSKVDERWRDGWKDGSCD", "test": "ALR-catalysed DTT oxidation blockers – biochemical, H2O2 detection, luminescence, cherry-pick, dose response (AID 493248)"}, "[20]": {"tested_on": "HeLa", "test": "ATP-based viability loss in HeLa cells – cell-based, CellTiter-Glo luminescence, cherry-pick samples, cytotoxicity control for MITF activator project, dose response (AID 540259)", "type": "functional", "conditions": "Homo sapiens"}},
  "note": "Active and inactive are the calls of the source.",
  "data": [
    {"smiles": "Cc1sc(NC(=O)c2ccco2)c(CN2CCC(C)CC2)c1C", "values": [
      {"measurement": "EC50", "setting": "[1]", "result": "7.78 µM (active)"},
      {"measurement": "EC50", "setting": "[2]", "result": "> 350 µM (not active)"},
      {"measurement": "EC50", "setting": "[3]", "result": "> 350 µM (not active)"}
    ]},
    {"smiles": "COc1ccccc1C(C#N)c1cccc(Cl)n1", "note": "(stereo not given)", "values": [
      {"measurement": "AC50", "setting": "[4]", "result": "0.85 µM (active)"}
    ]},
    {"smiles": "Cc1cc(N)n2nc(-c3ccccc3)cc2n1", "values": [
      {"measurement": "EC50", "setting": "[5]", "result": "1.04 µM (active)"},
      {"measurement": "EC50", "setting": "[6]", "result": "> 50 µM (not active)"}
    ]},
    {"smiles": "CC(C)(C)NC(=O)c1cc(Cl)ccc1[N+](=O)[O-]", "values": [
      {"measurement": "AC50", "setting": "[4]", "result": "11.5 µM (active)"}
    ]},
    {"smiles": "COC(=O)[C@@H]1Cc2c([nH]c3ccccc23)C(C)(C)N1C(=O)CCl", "values": [
      {"measurement": "EC50", "setting": "[7]", "result": "3.16 µM (inconclusive)"},
      {"measurement": "EC50", "setting": "[8]", "result": "18.1 µM (active)"},
      {"measurement": "EC50", "setting": "[9]", "result": "2.4 µM (inconclusive)"},
      {"measurement": "EC50", "setting": "[10]", "result": "> 75 µM (inconclusive)"},
      {"measurement": "EC50", "setting": "[11]", "result": "2.65 µM (inconclusive)"},
      {"measurement": "IC50", "setting": "[12]", "result": "> 80 µM (inactive)"},
      {"measurement": "AC50", "setting": "[13]", "result": "1.26 µM (active)"},
      {"measurement": "AC50", "setting": "[14]", "result": "3.27 µM (active)"},
      {"measurement": "EC50", "setting": "[15]", "result": "4.08 µM (active)"}
    ]},
    {"smiles": "COc1ccc(Br)cc1S(=O)(=O)Nc1ccc2ncccc2c1", "values": [
      {"measurement": "IC50", "setting": "[16]", "result": "> 100 µM (inactive)"},
      {"measurement": "IC50", "setting": "[17]", "result": "> 100 µM (not active)"}
    ]},
    {"smiles": "Sc1nnc(-c2ccccn2)n1/N=C/c1cccc2ccccc12", "values": [
      {"measurement": "IC50", "setting": "[18]", "result": "2.35 µM (active)"},
      {"measurement": "AC50", "setting": "[19]", "result": "10.8 µM (active)"}
    ]},
    {"smiles": "Cc1ccc(SCc2cn3c(C)csc3n2)cc1", "values": [
      {"measurement": "EC50", "setting": "[5]", "result": "< 0.2 µM (active)"},
      {"measurement": "EC50", "setting": "[6]", "result": "> 50 µM (not active)"},
      {"measurement": "AC50", "setting": "[20]", "result": "54.9 µM (active)"}
    ]},
    {"smiles": "CC(C)c1cc(C(C)C)c(S(=O)(=O)Nc2cnc3ccccc3c2)c(C(C)C)c1", "values": [
      {"measurement": "IC50", "setting": "[16]", "result": "> 100 µM (inactive)"},
      {"measurement": "IC50", "setting": "[17]", "result": "> 100 µM (not active)"}
    ]}
  ]
}
